For this experiment, the target named is T1, human IDO1 (Homo sapiens, UniProt P14902).
T1 construct: expressed in transfected cells
Description: human IDO1/HEK293 cell IDO inhibition assay (kynurenine production). Type of experiment: cell-based. Conditions: HEK293 cells stably expressing human IDO1; 20 hours incubation; absorbance at 490 nm; read-out: Biol. Activity (HEK μM) IDO IC50. Here is the method:
HEK293 cells were transfected with a pCDNA-based mammalian expression vector harboring human IDO1 cDNA (NM 002164.2) by electroporation. They were cultured in medium (DMEM with 10% FBS) containing 1 mg/ml G418 for two weeks. Clones of HEK293 cells that stably expressed human IDO1 protein were selected and expanded for IDO inhibition assay.
The human IDO1/HEK293 cells were seeded at 10,000 cells per 50 μL per well with RPMI/phenol red free media contains 10% FBS in a 384-well black wall clear bottom tissue culture plate (Matrix Technologies LLC) 100 nL of certain concentration of compound was then added to each well using ECHO liquid handling systems. The cells were incubated for 20 hours in 37° C. incubator with 5% CO2.
The compound treatments were stopped by adding trichloroacetic acid (Sigma-Aldrich) to a final concentration at 0.2%. The cell plate was further incubated at 50° C. for 30 minute. The equal volume supernatant (20 μL) and 0.2% (w/v) Ehrlich reagent (4-dimethylaminobenzaldehyde, Sigma-Aldrich) in glacial acetic acid were mixed in a new clear bottom 384-well plate. This plate was then incubated at room temperature for 30 minute. The absorbance at 490 nm was measured on Envision plate reader.
Compound IC50 values were calculated using the counts of 500 nM of a reference standard treatment as one hundred percent inhibition, and counts of no compound but DMSO treatment as zero percent inhibition.

IC50 data for four molecules are collected here from US10323004B2, “Inhibitors of indoleamine 2,3-dioxygenase and methods of their use” (BRISTOL-MYERS SQUIBB COMPANY, priority 2016, dated 2019).

Each structure is given as a SMILES string.

T1 sequence (P14902 whole entry): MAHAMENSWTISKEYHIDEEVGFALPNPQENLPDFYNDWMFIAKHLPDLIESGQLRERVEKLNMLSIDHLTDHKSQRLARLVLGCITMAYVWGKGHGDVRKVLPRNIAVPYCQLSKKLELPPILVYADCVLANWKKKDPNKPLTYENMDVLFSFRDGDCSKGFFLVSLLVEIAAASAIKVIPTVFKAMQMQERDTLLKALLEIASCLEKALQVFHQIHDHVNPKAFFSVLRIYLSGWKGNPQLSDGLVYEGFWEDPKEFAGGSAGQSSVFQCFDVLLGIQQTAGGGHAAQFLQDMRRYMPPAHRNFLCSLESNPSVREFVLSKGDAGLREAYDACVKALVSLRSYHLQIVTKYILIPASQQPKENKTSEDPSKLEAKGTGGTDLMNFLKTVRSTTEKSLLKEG

`O=C(Cc1ccc(Cl)cc1)N(Cc1ccccc1)[C@H]1CC[C@H](c2ccnc3ccc(F)cc32)CC1` [Example 1, N-benzyl-2-(4-chlorophenyl)-N-(trans-4-(6-fluoroquinolin-4-yl)cyclohexyl)acetamide]: the concentration for half-maximal inhibition (IC50) – broadly, the midpoint of a concentration-inhibition curve – is less than 10 µM.

With `O=C(c1ccc(Cl)cc1)N(Cc1ccccc1)[C@H]1CC[C@H](c2ccnc3ccc(F)cc32)CC1` [Example 2, N-benzyl-4-chloro-N-(trans-4-(6-fluoroquinolin-4-yl)cyclohexyl)benzamide], the 50% inhibitory concentration (IC50) is less than 1 µM.

Regarding `N#Cc1ccc(C(=O)N(Cc2ccccc2)[C@H]2CC[C@H](c3ccnc4ccc(F)cc43)CC2)cc1` [Example 3, N-benzyl-4-cyano-N-(trans-4-(6-fluoroquinolin-4-yl)cyclohexyl)benzamide], the IC50 is less than 10 µM.

In the case of `O=C(Cc1ccc(Cl)cc1)N(Cc1ccccc1)[C@H]1CC[C@@H](c2ccnc3ccc(F)cc32)CC1` [Example 4, N-benzyl-2-(4-chlorophenyl)-N-(cis-4-(6-fluoroquinolin-4-yl)cyclohexyl)acetamide], the IC50 was less than 10 µM.
